Results as given in patent publication US20260001928A1 (CORTERIA PHARMACEUTICALS, priority 2022, published 2026).
*1 amine or outer side, *2 acyl side, *3 side chain or, on linkers, in order; H or OH if unused. Where a SMILES comes first, the peptide text is derived from it. Side-chain parts run from the residue outwards. [ ]: non-standard residue; d: D form. The star is where a group is joined. γGlu = O=C(O)[C@H](CCC(=O)[*:2])N[*:1]; C14 diacid = O=C(O)CCCCCCCCCCCCC(=O)*; C12 diacid = O=C(O)CCCCCCCCCCC(=O)*; NMeI = CC[C@H](C)[C@H](NC)C(=O)O; Pentanoyl = CCCCC(=O)*; AEEA = NCCOCCOCC(=O)O; Aib = CC(C)(N)C(=O)O

Tests used:
CFR1R receptor = target: T1, CFR1R receptor (Homo sapiens, UniProt P34998); assay: Activity at anti-target CFR1R receptor, cAMP assay in CRF1R-overexpression CHO-K1 cells; type: cell-based; conditions: 100% = Sauvagine at 100 nM; for EC50: cAMP
T1 construct: host or cells: CHO-K1 (clone 2)
T1 sequence (P34998 24-415): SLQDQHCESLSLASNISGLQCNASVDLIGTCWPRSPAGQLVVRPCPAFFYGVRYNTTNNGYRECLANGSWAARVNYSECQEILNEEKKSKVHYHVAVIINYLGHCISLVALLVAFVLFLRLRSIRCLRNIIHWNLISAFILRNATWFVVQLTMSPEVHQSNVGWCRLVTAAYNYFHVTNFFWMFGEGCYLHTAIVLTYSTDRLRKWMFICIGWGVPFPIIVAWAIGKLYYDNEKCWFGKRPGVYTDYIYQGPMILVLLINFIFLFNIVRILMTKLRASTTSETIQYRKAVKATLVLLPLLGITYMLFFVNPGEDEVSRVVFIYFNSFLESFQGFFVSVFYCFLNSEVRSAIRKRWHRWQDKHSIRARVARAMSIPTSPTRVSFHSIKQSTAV
Outline: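 Uses frozen stocks of CHO-K1 clone 2 cells overexpressing human CRF1R, plated at 4000 cells/well final, with cAMP measured by the same protocol as the TeloHAEC line. Full-activation control: 100 nM Sauvagine.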

human CRF2a receptor = target: T2, human CRF2a receptor (Homo sapiens, UniProt Q13324); assay: Activity at human CRF2a receptor, cAMP functional assay in TeloHEAC cells; type: cell-based; conditions: TeloHEAC cells stably expressing human CRF2a receptor, relative to urocortin 2 (100 nM = 100%)
T2 construct: expressed in transfected cells; host or cells: TeloHEAC cells
T2 sequence (Q13324 1-411): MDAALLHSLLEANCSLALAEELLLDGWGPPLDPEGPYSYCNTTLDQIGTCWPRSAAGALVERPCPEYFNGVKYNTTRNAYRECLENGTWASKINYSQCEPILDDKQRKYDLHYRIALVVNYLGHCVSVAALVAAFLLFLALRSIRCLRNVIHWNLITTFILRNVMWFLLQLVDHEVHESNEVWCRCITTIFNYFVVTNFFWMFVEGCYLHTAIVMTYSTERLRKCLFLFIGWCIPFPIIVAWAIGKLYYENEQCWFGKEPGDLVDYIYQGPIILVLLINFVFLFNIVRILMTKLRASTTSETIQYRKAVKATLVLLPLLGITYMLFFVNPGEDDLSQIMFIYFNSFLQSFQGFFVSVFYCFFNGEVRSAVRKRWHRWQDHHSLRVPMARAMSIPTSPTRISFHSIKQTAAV
Outline: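 TeloHEAC cells stably expressing human CRF2a (10000 cells/well, suspended in HBSS/20 mM HEPES with 2 mM IBMX) were exposed to compounds for 30 min at 37 °C. cAMP was read as the 665/620 nm fluorescence ratio after 1 h at room temperature. EC50 was derived relative to 100 nM urocortin 2, set as 100%.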

Emax (% I) (CFR1R receptor)	EC50 (CFR1R receptor) [nM]	EC50 (human CRF2a receptor) [nM]	Compound
1	> 250	6.5	CC[C@H](C)[C@H](NC)C(=O)N[C@H](C(=O)N[C@@H](CC(C)C)C(=O)N[C@@H](CO)C(=O)N[C@@H](CC(C)C)C(=O)N[C@@H](CC(=O)O)C(=O)N[C@@H](C(=O)N1CCC[C@H]1C(=O)N[C@H](C(=O)N[C@@H](CCCCN)C(=O)N[C@@H](CC(C)C)C(=O)N[C@@H](CCCCNC(=O)COCCOCCNC(=O)COCCOCCNC(=O)CC[C@H](NC(=O)CCCCCCCCCCCCC(=O)O)C(=O)O)C(=O)N[C@@H](CCCCN)C(=O)N[C@H](C(=O)N[C@@H](CC(C)C)C(=O)N[C@@H](CC(C)C)C(=O)N[C@@H](CCC(=O)O)C(=O)N[C@@H](CCC(N)=O)C(=O)N[C@@H](CCC(=O)O)C(=O)N[C@@H](CCCCN)C(=O)N[C@@H](CCC(N)=O)C(=O)N[C@@H](CCCCN)C(=O)N[C@@H](CCCCN)C(=O)N[C@@H](CCC(N)=O)C(=O)N[C@@H](CCCNC(=N)N)C(=O)N[C@@H](CCC(=O)O)C(=O)N[C@@H](CCC(N)=O)C(=O)N[C@@H](C)C(=O)N[C@@H](CCC(=O)O)C(=O)N[C@H](C(=O)N[C@@H](CC(N)=O)C(=O)NC(C)(C)C(=O)N[C@@H](CCC(N)=O)C(=O)N[C@H](C(=O)N[C@@H](CC(C)C)C(=O)N[C@@H](C)C(=O)N[C@@H](CCC(N)=O)C(=O)N[C@H](C(N)=O)C(C)C)[C@@H](C)CC)[C@@H](C)O)[C@@H](C)CC)[C@@H](C)CC)C(C)C)C(C)C [compound 178] (H-[NMeI]VLSLD[dV]PIKLK([AEEA-AEEA-γGlu-C14 diacid])KILLEQEKQKKQREQAETN[Aib]QILAQV-NH2)
−4	> 250	15.5	CC[C@H](C)[C@H](NC)C(=O)N[C@H](C(=O)N[C@@H](CC(C)C)C(=O)N[C@@H](CO)C(=O)N[C@@H](CC(C)C)C(=O)N[C@@H](CC(=O)O)C(=O)N[C@@H](C(=O)N1CCC[C@H]1C(=O)N[C@H](C(=O)N[C@@H](CCCCN)C(=O)N[C@@H](CC(C)C)C(=O)N[C@@H](CCCCNC(=O)COCCOCCNC(=O)COCCOCCNC(=O)CC[C@H](NC(=O)CC[C@H](NC(=O)CCCCCCCCCCCCC(=O)O)C(=O)O)C(=O)O)C(=O)N[C@@H](CCCCN)C(=O)N[C@H](C(=O)N[C@@H](CC(C)C)C(=O)N[C@@H](CC(C)C)C(=O)N[C@@H](CCC(=O)O)C(=O)N[C@@H](CCC(N)=O)C(=O)N[C@@H](CCC(=O)O)C(=O)N[C@@H](CCCCN)C(=O)N[C@@H](CCC(N)=O)C(=O)N[C@@H](CCCCN)C(=O)N[C@@H](CCCCN)C(=O)N[C@@H](CCC(N)=O)C(=O)N[C@@H](CCCNC(=N)N)C(=O)N[C@@H](CCC(=O)O)C(=O)N[C@@H](CCC(N)=O)C(=O)N[C@@H](C)C(=O)N[C@@H](CCC(=O)O)C(=O)N[C@H](C(=O)N[C@@H](CC(N)=O)C(=O)NC(C)(C)C(=O)N[C@@H](CCC(N)=O)C(=O)N[C@H](C(=O)N[C@@H](CC(C)C)C(=O)N[C@@H](C)C(=O)N[C@@H](CCC(N)=O)C(=O)N[C@H](C(N)=O)C(C)C)[C@@H](C)CC)[C@@H](C)O)[C@@H](C)CC)[C@@H](C)CC)C(C)C)C(C)C [compound 179] (H-[NMeI]VLSLD[dV]PIKLK([AEEA-AEEA-γGlu-γGlu-C14 diacid])KILLEQEKQKKQREQAETN[Aib]QILAQV-NH2)
2	> 250	10.7	CCCCC(=O)N[C@H](C(=O)N[C@@H](CC(C)C)C(=O)N[C@@H](CO)C(=O)N[C@@H](CC(C)C)C(=O)N[C@@H](CC(=O)O)C(=O)N[C@@H](C(=O)N1CCC[C@H]1C(=O)N[C@H](C(=O)N[C@@H](CCCCN)C(=O)N[C@@H](CC(C)C)C(=O)N[C@@H](CCCCNC(=O)COCCOCCNC(=O)COCCOCCNC(=O)CC[C@H](NC(=O)CCCCCCCCCCCCC(=O)O)C(=O)O)C(=O)N[C@@H](CCCCN)C(=O)N[C@H](C(=O)N[C@@H](CC(C)C)C(=O)N[C@@H](CC(C)C)C(=O)N[C@@H](CCC(=O)O)C(=O)N[C@@H](CCC(N)=O)C(=O)N[C@@H](CCC(=O)O)C(=O)N[C@@H](CCCCN)C(=O)N[C@@H](CCC(N)=O)C(=O)N[C@@H](CCCCN)C(=O)N[C@@H](CCCCN)C(=O)N[C@@H](CCC(N)=O)C(=O)N[C@@H](CCCNC(=N)N)C(=O)N[C@@H](CCC(=O)O)C(=O)N[C@@H](CCC(N)=O)C(=O)N[C@@H](C)C(=O)N[C@@H](CCC(=O)O)C(=O)N[C@H](C(=O)N[C@@H](CC(N)=O)C(=O)NC(C)(C)C(=O)N[C@@H](CCC(N)=O)C(=O)N[C@H](C(=O)N[C@@H](CC(C)C)C(=O)N[C@@H](C)C(=O)N[C@@H](CCC(N)=O)C(=O)N[C@H](C(N)=O)C(C)C)[C@@H](C)CC)[C@@H](C)O)[C@@H](C)CC)[C@@H](C)CC)C(C)C)C(C)C [compound 180] (Pentanoyl-VLSLD[dV]PIKLK([AEEA-AEEA-γGlu-C14 diacid])KILLEQEKQKKQREQAETN[Aib]QILAQV-NH2)
9	> 250	24.7	CCCCC(=O)N[C@H](C(=O)N[C@@H](CC(C)C)C(=O)N[C@@H](CO)C(=O)N[C@@H](CC(C)C)C(=O)N[C@@H](CC(=O)O)C(=O)N[C@@H](C(=O)N1CCC[C@H]1C(=O)N[C@H](C(=O)N[C@@H](CCCCN)C(=O)N[C@@H](CC(C)C)C(=O)N[C@@H](CCCCNC(=O)COCCOCCNC(=O)COCCOCCNC(=O)CC[C@H](NC(=O)CC[C@H](NC(=O)CCCCCCCCCCCCC(=O)O)C(=O)O)C(=O)O)C(=O)N[C@@H](CCCCN)C(=O)N[C@H](C(=O)N[C@@H](CC(C)C)C(=O)N[C@@H](CC(C)C)C(=O)N[C@@H](CCC(=O)O)C(=O)N[C@@H](CCC(N)=O)C(=O)N[C@@H](CCC(=O)O)C(=O)N[C@@H](CCCCN)C(=O)N[C@@H](CCC(N)=O)C(=O)N[C@@H](CCCCN)C(=O)N[C@@H](CCCCN)C(=O)N[C@@H](CCC(N)=O)C(=O)N[C@@H](CCCNC(=N)N)C(=O)N[C@@H](CCC(=O)O)C(=O)N[C@@H](CCC(N)=O)C(=O)N[C@@H](C)C(=O)N[C@@H](CCC(=O)O)C(=O)N[C@H](C(=O)N[C@@H](CC(N)=O)C(=O)NC(C)(C)C(=O)N[C@@H](CCC(N)=O)C(=O)N[C@H](C(=O)N[C@@H](CC(C)C)C(=O)N[C@@H](C)C(=O)N[C@@H](CCC(N)=O)C(=O)N[C@H](C(N)=O)C(C)C)[C@@H](C)CC)[C@@H](C)O)[C@@H](C)CC)[C@@H](C)CC)C(C)C)C(C)C [compound 181] (Pentanoyl-VLSLD[dV]PIKLK([AEEA-AEEA-γGlu-γGlu-C14 diacid])KILLEQEKQKKQREQAETN[Aib]QILAQV-NH2)
1	> 250	1.88	CC[C@H](C)[C@H](NC(C)=O)C(=O)N[C@H](C(=O)N[C@@H](CC(C)C)C(=O)N[C@@H](CO)C(=O)N[C@@H](CC(C)C)C(=O)N[C@@H](CC(=O)O)C(=O)N[C@@H](C(=O)N1CCC[C@H]1C(=O)N[C@H](C(=O)N[C@@H](CCCCN)C(=O)N[C@@H](CC(C)C)C(=O)N[C@@H](CCCCNC(=O)CC[C@H](NC(=O)CCCCCCCCCCC(=O)O)C(=O)O)C(=O)N[C@@H](CCCCN)C(=O)N[C@H](C(=O)N[C@@H](CC(C)C)C(=O)N[C@@H](CC(C)C)C(=O)N[C@@H](CCC(=O)O)C(=O)N[C@@H](CCC(N)=O)C(=O)N[C@@H](CCC(=O)O)C(=O)N[C@@H](CCCCN)C(=O)N[C@@H](CCC(N)=O)C(=O)N[C@@H](CCCCN)C(=O)N[C@@H](CCCCN)C(=O)N[C@@H](CCC(N)=O)C(=O)N[C@@H](CCCNC(=N)N)C(=O)N[C@@H](CCC(=O)O)C(=O)N[C@@H](CCC(N)=O)C(=O)N[C@@H](C)C(=O)N[C@@H](CCC(=O)O)C(=O)N[C@H](C(=O)N[C@@H](CC(N)=O)C(=O)NC(C)(C)C(=O)N[C@@H](CCC(N)=O)C(=O)N[C@H](C(=O)N[C@@H](CC(C)C)C(=O)N[C@@H](C)C(=O)N[C@@H](CCC(N)=O)C(=O)N[C@H](C(N)=O)C(C)C)[C@@H](C)CC)[C@@H](C)O)[C@@H](C)CC)[C@@H](C)CC)C(C)C)C(C)C [compound 182] (Ac-IVLSLD[dV]PIKLK([γGlu-C12 diacid])KILLEQEKQKKQREQAETN[Aib]QILAQV-NH2)
